Test results from patent US7517889B2, “2,6-substituted-4-monosubstitutedamino-pyrimidine as prostaglandin D2 receptor antagonists” (Aventis Pharmaceuticals, Inc., priority 2004, dated 2009).
Where a name gives a salt, the structure may show the parent alone.

Biological target: T1, DP receptor (Homo sapiens, UniProt Q13258)
T1 construct: the human cell line LS174T, which expresses the endogenous DP receptor; endogenous in cells; host or cells: LS174T human cell line
T1 sequence (Q13258 1-359): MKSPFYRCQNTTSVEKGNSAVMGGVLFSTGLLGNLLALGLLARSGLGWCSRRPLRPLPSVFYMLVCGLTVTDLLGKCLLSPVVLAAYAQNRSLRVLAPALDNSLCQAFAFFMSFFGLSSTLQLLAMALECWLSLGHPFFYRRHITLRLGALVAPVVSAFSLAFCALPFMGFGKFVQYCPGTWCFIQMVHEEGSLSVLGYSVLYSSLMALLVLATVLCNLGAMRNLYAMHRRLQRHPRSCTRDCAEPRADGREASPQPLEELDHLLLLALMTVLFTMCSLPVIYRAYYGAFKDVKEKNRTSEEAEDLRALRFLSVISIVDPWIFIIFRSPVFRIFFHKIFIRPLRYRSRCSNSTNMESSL
Assay: SPA cAMP assay in human LS174 T cells (human DP functional assay)
Type: cell-based
Details: inhibition of PGD2 (15 nM final) stimulated cAMP, LS174T cells expressing endogenous DP receptor
Procedure, shortened: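 LS174T cells with endogenous DP receptor, 45,000/well seeded overnight, exposed to compounds at 11 points for 15 min at 37 °C in buffer containing IBMX, with PGD2 stimulation.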

Row | IC50 | SMILES
1 | 0.3 nM | CNC(=O)c1ccc(-c2cc(NCCc3ccc(OC)cc3)nc(OC)n2)s1 [Example 62, 5-{2-Methoxy-6-[2-(4-methoxy-phenyl)-ethylamino]-pyrimidin-4-yl}-thiophene-2-carboxylic acid methylamide trifluoroacetate]
2 | 71 nM | CC(C)(C(=O)O)c1cccc(-c2cc(NCCc3ccc(Cl)cc3Cl)nc(CO)n2)c1 [Example 86, 2-(3-{6-[2-(2,4-dichloro-phenyl)-ethylamino]-2-hydroxymethyl-pyrimidin-4-yl}-phenyl)-2-methyl-propionic acid]
3 | 5 nM | COc1ccc(CCNc2cc(-c3cccc(C(C)=O)c3)nc(OC)n2)cc1 [Example 35(h), 1-(3-{2-Methoxy-6-[2-(4-methoxy-phenyl)-ethylamino]-pyrimidin-4-yl}-phenyl)-ethanone]
4 | 4.8 nM | COc1nc(NCCc2ccc(OC(F)(F)F)cc2)cc(-c2cccc(NC(C)=O)c2)n1 [Example 6(a), N-(3-{2-Methoxy-6-[2-(4-trifluoromethoxy-phenyl)-ethylamino]-pyrimidin-4-yl}phenyl)-acetamide]
5 | 0.1 nM | COc1ccc(CCNc2cc(-c3cccc(Cc4nnn[nH]4)c3)nc(OC)n2)cc1 [Example 24(b), [2-(4-Methoxy-phenyl)-ethyl]-{2-methoxy-6-[3-(1H-tetrazol-5-ylmethyl)-phenyl]-pyrimidin-4-yl}-amine hydrochloride]
6 | < 1 nM | COc1nc(NCCc2ccc(Cl)cc2Cl)cc(-c2cccc(C3(C(=O)NS(C)(=O)=O)CCOCC3)c2)n1 [Example 80(b), N-[4-(3-{6-[2-(2,4-Dichloro-phenyl)-ethylamino]-2-methoxy-pyrimidin-4-yl}-phenyl)-tetrahydro-pyran-4-carbonyl]-methanesulfonamide]
7 | 1 nM | COc1nc(NCCc2c(F)cccc2Cl)cc(-c2cccc(Cc3noc(=O)[nH]3)c2)n1 [Example 34(b), 3-(3-{6-[2-(2-Chloro-6-fluoro-phenyl)-ethylamino]-2-methoxy-pyrimidin-4-yl}-benzyl)-4H-[1,2,4]oxadiazol-5-one hydrochloride]
8 | 26 nM | COc1ccc(CCNc2cc(-c3cn[nH]c3)nc(OC)n2)cc1 [Example 8(f), [2-(4-Methoxy-phenyl)-ethyl]-[2-methoxy-6-(1H-pyrazol-4-yl)-pyrimidin-4-yl]-amine]
9 | 0.7 nM | COc1ccc(CCNc2cc(-c3ccc4[nH]ccc4c3)nc(OC)n2)cc1 [Example 10(c), [6-(1H-Indol-5-yl)-2-methoxy-pyrimidin-4-yl]-[2-(4-methoxy-phenyl)-ethyl]-amine]
10 | 2.7 nM | COCc1nc(NCCc2ccc(Cl)cc2Cl)cc(-c2cccc(C(C)(C)C(=O)O)c2)n1 [Example 85, 2-(3-{6-[2-(2,4-Dichloro-phenyl)-ethylamino]-2-methoxymethyl-pyrimidin-4-yl}-phenyl)-2-methyl-propionic acid]
11 | 83 nM | COc1nc(NC2CCc3ccccc32)cc(-c2cccc(C(C)(C)C(=O)O)c2)n1 (stereo not shown) [Example 83(a), 2-{3-[6-(Indan-1-ylamino)-2-methoxy-pyrimidin-4-yl]-phenyl}-2-methyl-propionic acid]
12 | 0.8 nM | COc1ccc(CCNc2cc(-c3ccc(/C(C)=N\O)s3)nc(OC)n2)cc1 [Example 26(e), 1-(5-{2-Methoxy-6-[2-(4-methoxy-phenyl)-ethylamino]-pyrimidin-4-yl}-thiophen-2-yl)-ethanone oxime]
13 | 0.8 nM | COc1nc(NCCc2ccc(Cl)cc2Cl)cc(-c2cccc(C(=O)NCC(=O)O)c2)n1 [Example 59, (3-{6-[2-(2,4-Dichloro-phenyl)-ethylamino]-2-methoxy-pyrimidin-4-yl}-benzoylamino)-acetic acid]
14 | 10 nM | COc1ccc(CCNc2cc(-c3cccc(CNCCc4ccc(O)cc4)c3)nc(OC)n2)cc1 [Example 13(c), 4-[2-(3-{2-Methoxy-6-[2-(4-methoxy-phenyl)-ethylamino]-pyrimidin-4-yl}-benzylamino)-ethyl]-phenol hydrochloride]
15 | < 1 nM | COc1nc(NCCc2ccc(Cl)cc2Cl)cc(-c2cccc(C(C)(C)C(=O)Nc3nnn[nH]3)c2)n1 [Example 95(e), 2-(3-{6-[2-(2,4-Dichloro-phenyl)-ethylamino]-2-methoxy-pyrimidin-4-yl}-phenyl)-N-(1H-tetrazol-5-yl)-isobutyramide]
16 | 56 nM | COc1ccc(CCNc2cc(-c3ccc(F)c(CNCCN(C)C)c3)nc(OC)n2)cc1 [Example 13(d), N-(2-Fluoro-5-{2-methoxy-6-[2-(4-methoxy-phenyl)-ethylamino]-pyrimidin-4-yl}-benzyl)-N′,N′-dimethyl-ethane-1,2-diamine hydrochloride]

Row | SMILES | IC50
17 | COc1ccc(CCNc2cc(-c3ccc(F)c(/C=N\O)c3)nc(OC)n2)cc1 [Example 26, 2-Fluoro-5-{2-methoxy-6-[2-(4-methoxy-phenyl)-ethylamino]-pyrimidin-4-yl}-benzaldehyde oxime] | 4.5 nM
18 | COc1ccc(C(C)(C)CNc2cc(-c3cccc(OC)c3)nc(OC)n2)cc1 [Example 29, [2-Methoxy-6-(3-methoxy-phenyl)-pyrimidin-4-yl]-[2-(4-methoxy-phenyl)-2-methyl-propyl]-amine] | 792 nM
19 | COc1ccc(CCNc2cc(-c3ccc4cn[nH]c4c3)nc(OC)n2)cc1 [Example 53(b), [6-(1H-Indazol-6-yl)-2-methoxy-pyrimidin-4-yl]-[2-(4-methoxy-phenyl)-ethyl]-amine] | 0.95 nM
